According to patent US20110152092A1, “Herbicidal compositions comprising flufenacet” (Bayer CropScience AG, priority 2009, published 2011):

Legend:
STEME [1] = experiment: Greenhouse trial, activity with different soil types; assay type: in vivo, Stellaria media; settings: g of AS/ha: (A) 120, (B) 1200, (C) 90, mixture 120 + 1200 + 90
Experimental: (§1) In the standard design of the test, seeds of various broad-leaved weed and weed grass biotypes (origins) were sown in a 8-13 cm diameter pot filled with natural soil of a standard field soil (loamy silt; non-sterile) and covered with a covering soil layer of about 1 cm. The pots were then cultivated in a greenhouse (12-16 h of light, temperature day 20-22° C., night 15-18° C.) until the time of application. The pots were treated on a laboratory track sprayer with spray liquors comprising the compositions according to the invention, mixtures of the prior art or components used individually. Application of the active compounds or active compound combinations formulated as WG, WP, EC or otherwise was carried out at the appropriate growth stages of the plants. The application rate for the spray application was 100-600 l of water/ha. After the treatment, the plants were returned to the greenhouses.
(§2) About 3 weeks after the application, the soil action or/and foliar action was assessed visually according to a scale of 0-100% in comparison to an untreated comparative group: 0%=no noticeable effect compared to the untreated comparative group; 100%=full effect compared to the untreated comparative group.
(§3) (notes: the term “seeds” also includes vegetative propagation forms such as, for example, rhizome pieces; abbreviations used: h light=hours of illumination, g of AS/ha=gram of active substance per hectare, l/ha=liter per hectare, S=sensitive, R=resistant) • 1. Pre-emergence action against weeds: seeds of various broad-leaved weed and weed grass biotypes (origins) were sown in a 8-13 cm diameter pot filled with natural soil of a standard field soil (loamy silt; non-sterile) and covered with a covering soil layer of about 1 cm. The pots were then cultivated in a greenhouse (12-16 h of light, temperature day 20-22° C., night 15-18° C.) until the time of application. The pots were treated at the BBCH stage 00-10 of the seeds/plants on a laboratory track sprayer with spray liquors comprising the compositions according to the invention, mixtures or components used individually, as WG, WP, EC or other formulations. The application rate for the spray application was 100-600 l of water/ha. After the treatment, the plants were returned to the greenhouses and, when required, treated with fertilizer and watered. • 2. Post-emergence action against weeds: seeds of various broad-leaved weed and weed grass biotypes (origins) were sown in a 8-13 cm diameter pot filled with natural soil of a standard field soil (loamy silt; non-sterile) and covered with a covering soil layer of about 1 cm. The pots were then cultivated in a greenhouse (12-16 h of light, temperature day 20-22° C., night 15-18° C.) until the time of application. The pots were treated at various BBCH stages between 11-25 of the seeds/plants, i.e. generally between two to three weeks after the start of the cultivation, on a laboratory track sprayer with spray liquors comprising the compositions according to the invention, mixtures or components used individually, as WG, WP, EC or other formulations. The application rate for the spray application was 100-600 l of water/ha. After the treatment, the plants were returned to the greenhouses and, when required, treated with fertilizer and watered. • 3. Selective pre-emergence action: seeds of various crop species (origins) were sown in a 8-13 cm diameter pot filled with natural soil of a standard field soil (loamy silt; non-sterile) and covered with a covering soil layer of about 1 cm. The pots were then cultivated in a greenhouse (12-16 h of light, temperature day 20-22° C., night 15-18° C.) until the time of application. The pots were treated at the BBCH stage 00-10 of the seeds/plants on a laboratory track sprayer with spray liquors comprising the compositions according to the invention, mixtures or components used individually, as WG, WP, EC or other formulations. The application rate for the spray application was 100-600 l of water/ha. […]

MATCH = experiment: as above; assay type: in vivo, Matricaria chamomilla; settings: g of AS/ha: (A) 120, (B) 1200, (C) 90, mixture 120 + 1200 + 90
Experimental: as §1, §2
(§4) (notes: the term “seeds” also includes vegetative propagation forms such as, for example, rhizome pieces; abbreviations used: h light=hours of illumination, g of AS/ha=gram of active substance per hectare, l/ha=liter per hectare, S=sensitive, R=resistant) • 1. Pre-emergence action against weeds: seeds of various broad-leaved weed and weed grass biotypes (origins) were sown in a 8-13 cm diameter pot filled with natural soil of a standard field soil (loamy silt; non-sterile) and covered with a covering soil layer of about 1 cm. The pots were then cultivated in a greenhouse (12-16 h of light, temperature day 20-22° C., night 15-18° C.) until the time of application. The pots were treated at the BBCH stage 00-10 of the seeds/plants on a laboratory track sprayer with spray liquors comprising the compositions according to the invention, mixtures or components used individually, as WG, WP, EC or other formulations. The application rate for the spray application was 100-600 l of water/ha. After the treatment, the plants were returned to the greenhouses and, when required, treated with fertilizer and watered. • 2. Post-emergence action against weeds: seeds of various broad-leaved weed and weed grass biotypes (origins) were sown in a 8-13 cm diameter pot filled with natural soil of a standard field soil (loamy silt; non-sterile) and covered with a covering soil layer of about 1 cm. The pots were then cultivated in a greenhouse (12-16 h of light, temperature day 20-22° C., night 15-18° C.) until the time of application. The pots were treated at various BBCH stages between 11-25 of the seeds/plants, i.e. generally between two to three weeks after the start of the cultivation, on a laboratory track sprayer with spray liquors comprising the compositions according to the invention, mixtures or components used individually, as WG, WP, EC or other formulations. The application rate for the spray application was 100-600 l of water/ha. After the treatment, the plants were returned to the greenhouses and, when required, treated with fertilizer and watered. • 3. […]

HORVS = experiment: as above; assay type: in vivo, Hordeum vulgare, summer barley; settings: g of AS/ha: (A) 120, (B) 1200, (C) 90, mixture 120 + 1200 + 90
Experimental: as §1, §2, §4

STEME [2] = experiment: Greenhouse trial, PE application on sensitive and resistant biotypes (test method 8); assay type: in vivo, Stellaria media; settings: g of AS/ha: (A) 90, (B) 1200, (C) 90, mixture 90 + 1200 + 90, iodosulfuron 10
Experimental: as §1
as §2, with “group. […]” for “group.”

ALOMY = experiment: as above; assay type: in vivo, Alopecurus myosuroides; settings: g of AS/ha: (A) 90, (B) 1200, (C) 90, mixture 90 + 1200 + 90, iodosulfuron 10
Experimental: as §1, §2, §3

APESV = experiment: Greenhouse trial, PE application at different sowing depths (test method 9); assay type: in vivo, Apera Spica-venti; settings: g of AS/ha: (A) 120, (B) 1200, (C) 90, mixture 90 + 1200 + 90
Experimental: as §1, §2
(notes: the term “seeds” also includes vegetative propagation forms such as, for example, rhizome pieces; abbreviations used: h light=hours of illumination, g of AS/ha=gram of active substance per hectare, l/ha=liter per hectare, S=sensitive, R=resistant) • 1. Pre-emergence action against weeds: seeds of various broad-leaved weed and weed grass biotypes (origins) were sown in a 8-13 cm diameter pot filled with natural soil of a standard field soil (loamy silt; non-sterile) and covered with a covering soil layer of about 1 cm. The pots were then cultivated in a greenhouse (12-16 h of light, temperature day 20-22° C., night 15-18° C.) until the time of application. […]

TRZAW = experiment: as above; assay type: in vivo, Triticum aestivum, winter wheat; settings: g of AS/ha: (A) 120, (B) 1200, (C) 90, mixture 90 + 1200 + 90
Experimental: as §1, §2
(notes: the term “seeds” also includes vegetative propagation forms such as, for example, rhizome pieces; abbreviations used: h light=hours of illumination, g of AS/ha=gram of active substance per hectare, l/ha=liter per hectare, S=sensitive, R=resistant) • 1. Pre-emergence action against weeds: seeds of various broad-leaved weed and weed grass biotypes (origins) were sown in a 8-13 cm diameter pot filled with natural soil of a standard field soil (loamy silt; non-sterile) and covered with a covering soil layer of about 1 cm. The pots were then cultivated in a greenhouse (12-16 h of light, temperature day 20-22° C., night 15-18° C.) until the time of application. The pots were treated at the BBCH stage 00-10 of the seeds/plants on a laboratory track sprayer with spray liquors comprising the compositions according to the invention, mixtures or components used individually, as WG, WP, EC or other formulations. The application rate for the spray application was 100-600 l of water/ha. After the treatment, the plants were returned to the greenhouses and, when required, treated with fertilizer and watered. • 2. Post-emergence action against weeds: seeds of various broad-leaved weed and weed grass biotypes (origins) were sown in a 8-13 cm diameter pot filled with natural soil of a standard field soil (loamy silt; non-sterile) and covered with a covering soil layer of about 1 cm. The pots were then cultivated in a greenhouse (12-16 h of light, temperature day 20-22° C., night 15-18° C.) until the time of application. […]

CCC(CC)Nc1c([N+](=O)[O-])cc(C)c(C)c1[N+](=O)[O-] [(B) pendimethalin, N-(1-ethylpropyl)-3,4-dimethyl-2,6-dinitrobenzenamine]
activity STEME IU soil (visual, scale 0-100%) (STEME [1]; IU soil): 85%
Difference of the soil types, STEME (STEME [1]; IU/EC73 soil versus IU soil): −30%
activity STEME IU/EC73 soil (visual, scale 0-100%) (STEME [1]; IU/EC73 soil): 55%
activity MATCH IU soil (visual, scale 0-100%) (MATCH; IU soil): 10%
Difference of the soil types, MATCH (MATCH; IU/EC73 soil versus IU soil): −10%
activity MATCH IU/EC73 soil (visual, scale 0-100%) (MATCH; IU/EC73 soil): 0%
activity on crop plant HORVS IU soil (visual, scale 0-100%) (HORVS; IU soil): 20%
Difference (of the soil types), HORVS (HORVS; IU/EC73 soil versus IU soil): −20%
activity on crop plant HORVS IU/EC73 soil (visual, scale 0-100%) (HORVS; IU/EC73 soil): 0%
activity STEME resistant (visual, scale 0-100%) (STEME [2]; resistant biotype): 10%
activity STEME sensitive (visual, scale 0-100%) (STEME [2]; sensitive biotype): 70%
activity ALOMY resistant (visual, scale 0-100%) (ALOMY; resistant biotype): 40%
activity ALOMY sensitive (visual, scale 0-100%) (ALOMY; sensitive biotype): 30%
activity APESV 5 mm (visual, scale 0-100%) (APESV; sowing depth 5 mm): 0%
activity APESV 20 mm (visual, scale 0-100%) (APESV; sowing depth 20 mm): 0%
activity on crop plant TRZAW 5 mm (visual, scale 0-100%) (TRZAW; sowing depth 5 mm): 45%
activity on crop plant TRZAW 20 mm (visual, scale 0-100%) (TRZAW; sowing depth 20 mm): 10%
